Tests used:
Rattus norvegicus [1] = species on record: Rattus norvegicus; conditions: in vivo, po, 1 mg/kg
[2] = Volume of distribution at steady state in dog at 0.5 mg/kg, iv; format: ADME, organism-based, Canis lupus familiaris; conditions: in vivo, read-out: Vdss
[3] = Half life in dog at 0.5 mg/kg, iv; format: ADME, organism-based, Canis lupus familiaris; conditions: in vivo
Rattus norvegicus [4] = test: Antihypertensive activity in rat spontaneous hypertensive model assessed as change in systolic blood pressure at 3 mg/kg, po measured after 3 days; format: functional
[5] = molecular target: T1, ATP-sensitive inward rectifier potassium channel 1 (Homo sapiens, UniProt P48048); test: Inhibition of human ROMK expressed in CHO cells by electrophysiology method; format: cell-based
T1 sequence (P48048 whole entry): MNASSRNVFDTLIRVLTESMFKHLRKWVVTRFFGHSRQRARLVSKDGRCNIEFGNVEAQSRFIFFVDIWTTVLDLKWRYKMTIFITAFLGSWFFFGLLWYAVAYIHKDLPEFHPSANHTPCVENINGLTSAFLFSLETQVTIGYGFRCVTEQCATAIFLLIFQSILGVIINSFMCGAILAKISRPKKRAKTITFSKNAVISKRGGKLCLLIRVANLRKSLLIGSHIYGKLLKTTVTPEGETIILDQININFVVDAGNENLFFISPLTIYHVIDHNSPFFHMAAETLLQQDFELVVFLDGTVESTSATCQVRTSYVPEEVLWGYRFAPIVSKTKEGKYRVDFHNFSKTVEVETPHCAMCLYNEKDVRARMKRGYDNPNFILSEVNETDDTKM

[6] = molecular target: T2, ATP-sensitive inward rectifier potassium channel 1 (Rattus norvegicus, UniProt P35560); test: Inhibition of rat ROMK expressed in HEK293 cells after 30 mins by thallium flux assay; format: cell-based
T2 sequence (P35560 whole entry): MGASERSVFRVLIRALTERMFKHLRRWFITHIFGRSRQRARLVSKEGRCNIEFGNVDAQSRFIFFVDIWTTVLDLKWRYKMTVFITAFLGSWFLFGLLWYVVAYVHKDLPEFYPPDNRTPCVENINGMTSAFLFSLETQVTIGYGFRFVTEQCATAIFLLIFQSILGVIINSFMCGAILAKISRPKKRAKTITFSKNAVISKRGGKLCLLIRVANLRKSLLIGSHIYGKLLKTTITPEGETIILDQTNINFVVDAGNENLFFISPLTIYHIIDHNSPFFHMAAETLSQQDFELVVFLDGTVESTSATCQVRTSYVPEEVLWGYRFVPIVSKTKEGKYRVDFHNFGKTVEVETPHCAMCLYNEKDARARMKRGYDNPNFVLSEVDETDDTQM

in vivo [7] = conditions: rat, iv, 0.5 mg/kg
Canis familiaris = test: AUC (0 to t) in dog at 0.5 mg/kg, iv; format: ADME, organism-based, Canis lupus familiaris; conditions: in vivo
[8] = Drug uptake in plasma of rat spontaneous hypertensive model at 3 mg/kg, po measured after 3 days; format: ADME, organism-based; conditions: spontaneously hypertensive rat
Rattus norvegicus [9] = species on record: Rattus norvegicus; conditions: in vivo, iv, 0.5 mg/kg
in vivo [10] = conditions: rat, po, 1 mg/kg
in vivo [11] = conditions: rat
[12] = molecular target: T3, Voltage-gated inwardly rectifying potassium channel KCNH2 (Homo sapiens, UniProt Q12809)
[13] = molecular target: T1, ATP-sensitive inward rectifier potassium channel 1; test: Inhibition of human ROMK expressed in HEK293 cells after 30 mins by thallium flux assay; format: cell-based
Homo sapiens [14] = species on record: Homo sapiens; test: Selectivity ratio of IC50 for human ERG expressed in HEK293 cells to IC50 for human ROMK expressed in HEK293 cells; format: cell-based
[15] = Volume of distribution at steady state in rhesus monkey at 0.5 mg/kg, iv; format: ADME, organism-based, Macaca mulatta; conditions: in vivo, read-out: Vdss
Rhesus monkey = test: AUC (0 to t) in rhesus monkey at 0.5 mg/kg, iv; format: ADME, organism-based, Macaca mulatta; conditions: in vivo
[16] = Half life in dog at 1 mg/kg, po or 0.5 mg/kg, iv; format: ADME, organism-based, Canis lupus familiaris; conditions: in vivo
Homo sapiens [17] = species on record: Homo sapiens; test: Selectivity ratio of IC50 for human ERG to IC50 for human ROMK expressed in CHO cells by electrophysiology method; format: cell-based
[18] = AUC (0 to t) in dog at 1 mg/kg, po; format: ADME, organism-based, Canis lupus familiaris; conditions: in vivo
[19] = Clearance in dog at 1 mg/kg, po or 0.5 mg/kg, iv; format: ADME, organism-based, Canis lupus familiaris; conditions: in vivo
[20] = Oral bioavailability in dog at 1 mg/kg; format: ADME, organism-based, Canis lupus familiaris; conditions: in vivo
[21] = molecular target: T3, Voltage-gated inwardly rectifying potassium channel KCNH2; test: Inhibition of human ERG by electrophysiology method
[22] = Volume of distribution at steady state in dog at 1 mg/kg, po or 0.5 mg/kg, iv; format: ADME, organism-based, Canis lupus familiaris; conditions: in vivo, read-out: Vdss
[23] = Half life in rhesus monkey at 0.5 mg/kg, iv; format: ADME, organism-based, Macaca mulatta; conditions: in vivo
Rattus norvegicus [24] = test: Antihypertensive activity in rat spontaneous hypertensive model assessed as change in systolic blood pressure at 25 mg/kg, po measured after 3 days; format: functional
in vivo [25] = conditions: rat, po, 1 mg/kg; remark: listed apart in the source
[26] = Drug excretion in urine of rat spontaneous hypertensive model at 3 mg/kg, po measured after 24 hrs; format: ADME, organism-based; conditions: spontaneously hypertensive rat, read-out: Drug excretion
[27] = Drug excretion in urine of rat spontaneous hypertensive model at 3 mg/kg, po measured after 4 hrs; format: ADME, organism-based; conditions: spontaneously hypertensive rat, read-out: Drug excretion

T3 sequence (Q12809 whole entry): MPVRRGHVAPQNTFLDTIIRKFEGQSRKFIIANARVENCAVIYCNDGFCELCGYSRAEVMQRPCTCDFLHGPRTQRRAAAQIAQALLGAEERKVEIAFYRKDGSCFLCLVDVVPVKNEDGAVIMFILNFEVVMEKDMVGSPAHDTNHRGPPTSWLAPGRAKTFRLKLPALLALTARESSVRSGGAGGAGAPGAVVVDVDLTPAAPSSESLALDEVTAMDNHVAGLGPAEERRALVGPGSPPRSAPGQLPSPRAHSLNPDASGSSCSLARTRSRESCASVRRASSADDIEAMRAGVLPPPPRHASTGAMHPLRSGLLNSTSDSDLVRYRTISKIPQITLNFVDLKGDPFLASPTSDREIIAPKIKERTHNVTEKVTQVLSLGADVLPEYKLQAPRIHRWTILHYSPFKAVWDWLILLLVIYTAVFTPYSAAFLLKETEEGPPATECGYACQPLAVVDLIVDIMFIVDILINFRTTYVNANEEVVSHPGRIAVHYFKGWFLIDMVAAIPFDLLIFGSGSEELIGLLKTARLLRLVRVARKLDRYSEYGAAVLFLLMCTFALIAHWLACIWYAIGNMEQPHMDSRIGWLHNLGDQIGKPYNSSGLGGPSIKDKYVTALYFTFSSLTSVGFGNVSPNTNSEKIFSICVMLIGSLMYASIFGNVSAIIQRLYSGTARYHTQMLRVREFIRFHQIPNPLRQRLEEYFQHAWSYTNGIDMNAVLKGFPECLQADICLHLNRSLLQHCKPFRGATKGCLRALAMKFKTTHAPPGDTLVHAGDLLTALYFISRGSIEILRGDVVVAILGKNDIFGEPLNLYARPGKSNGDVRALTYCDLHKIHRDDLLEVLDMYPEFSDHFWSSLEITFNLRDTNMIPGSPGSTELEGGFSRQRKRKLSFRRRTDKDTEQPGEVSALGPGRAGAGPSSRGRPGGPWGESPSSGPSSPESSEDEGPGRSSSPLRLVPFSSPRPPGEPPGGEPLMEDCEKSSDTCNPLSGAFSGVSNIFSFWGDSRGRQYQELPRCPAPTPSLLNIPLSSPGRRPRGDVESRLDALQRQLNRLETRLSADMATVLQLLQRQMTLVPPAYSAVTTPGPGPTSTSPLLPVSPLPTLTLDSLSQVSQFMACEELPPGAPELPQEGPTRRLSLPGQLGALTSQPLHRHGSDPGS

Work on `Cc1c([C@@H](O)CN2CCC3(CC2)CCN(c2ccc(S(C)(=O)=O)cn2)C3)ccc2c1COC2=O` yielded an AUC/dose (Rattus norvegicus [1]) of 0.7 µM·kg·h/mg, a Vd [2] of 6.9 L/kg and a half-life [3] of 1.7 h. The Activity (Rattus norvegicus [4]) was -20.3 mmHg, the IC50 [5] was 29 nM and the IC50 [6] was 60 nM. For the same compound, the Vd (in vivo [7]) was 3.5 L/kg, the AUCt (Canis familiaris) was 0.66 µM·h and the concentration at 72 h [8] was 162 nM. For the same compound, the clearance (Rattus norvegicus [9]) was 24 mL/min/kg, the bioavailability (in vivo [10]) was 51% and the half-life (in vivo [11]) was 1.8 h.

In the case of `Cc1c([C@@H](O)CN2CCC3(CC2)CC(=O)N(c2ccc(S(C)(=O)=O)nc2)C3)ccc2c1COC2=O`, the IC50 [12] is reported as > 60000 nM.

Work on `Cc1c([C@@H](O)CN2CCC3(CC2)CCN(c2ccc([S+](C)[O-])nc2)C3)ccc2c1COC2=O` (some centres undefined) yielded an IC50 ([13]; read-out: IC50) of 6400 nM.

For `COc1ccc(N2CCC3(CCN(C[C@H](O)c4ccc5c(c4C)COC5=O)CC3)C2)cn1`, the Ratio IC50 (Homo sapiens [14]) was 303, the IC50 [12] was 3300 nM and the IC50 ([13]; read-out: IC50) was 1000 nM.

In the case of `Cc1c([C@@H](O)CN2CCC3(CC2)CC(=O)N(c2cncc(C#N)c2)C3)ccc2c1COC2=O`, the Ratio IC50 (Homo sapiens [14]) is reported as 180, the IC50 [12] is reported as 1800 nM and the IC50 ([13]; read-out: IC50) is reported as 10 nM.

Work on `Cc1nc(N2CCC3(CCN(C[C@H](O)c4ccc5c(c4C)COC5=O)CC3)C2)ccc1S(C)(=O)=O` yielded a Ratio IC50 (Homo sapiens [14]) of 101 and an IC50 [12] of 7900 nM.

For `Cc1c([C@@H](O)CN2CCC3(CC2)CCN(c2cncc(C#N)c2)C3)ccc2c1COC2=O`, the IC50 ([13]; read-out: IC50) was 10 nM.

For `Cc1c([C@@H](O)CN2CCC3(CC2)CC(=O)N(c2ccc(C#N)cn2)C3)ccc2c1COC2=O`, the Ratio IC50 (Homo sapiens [14]) was 180, the IC50 [12] was 1800 nM and the IC50 ([13]; read-out: IC50) was 10 nM.

With `CSc1ccc(N2CCC3(CCN(C[C@H](O)c4ccc5c(c4C)COC5=O)CC3)C2)cn1` the IC50 ([13]; read-out: IC50) was 901 nM.

For `Cc1c([C@@H](O)CN2CCC3(CC2)CCN(c2cnc(S(C)(=O)=O)cn2)C3)ccc2c1COC2=O`, the Vd [15] was 7 L/kg, the AUC/dose (Rattus norvegicus [1]) was 0.4 µM·kg·h/mg and the AUCt (Rhesus monkey) was 0.61 µM·h. It also gave a half-life [16] of 8.6 h, a Ratio IC50 (Homo sapiens [14]) of 202 and a Ratio IC50 (Homo sapiens [17]) of 614. For the same compound, the Activity (Rattus norvegicus [4]) was -19.9 mmHg, the IC50 [12] was 8900 nM and the IC50 [5] was 37 nM. The IC50 [6] was 40 nM, the AUC(0-t) [18] was 0.75 µM·h and the Vd (in vivo [7]) was 5.6 L/kg. For the same compound, the concentration at 72 h [8] was 78 nM, the clearance (Rattus norvegicus [9]) was 37 mL/min/kg and the clearance [19] was 42 mL/min/kg. For the same compound, the bioavailability [20] was 67%, the bioavailability (in vivo [10]) was 37% and the IC50 [21] was 22700 nM. It also gave a Vd [22] of 17.8 L/kg, a half-life (in vivo [11]) of 2.1 h and a half-life [23] of 1.8 h.

Compound `NS(=O)(=O)c1cc2c(cc1Cl)NCNS2(=O)=O` [HYDROCHLOROTHIAZIDE] has an Activity (Rattus norvegicus [24]) of -10.5 mmHg.

For `Cc1c([C@@H](O)CN2CCC3(CC2)CCN(c2ccc(C#N)cn2)C3)ccc2c1COC2=O`, the AUC/dose (Rattus norvegicus [1]) was 2 µM·kg·h/mg, the fraction unbound (in vivo [25]) was 0.27 and the Vd (in vivo [7]) was 4.7 L/kg. For the same compound, the clearance (Rattus norvegicus [9]) was 19.3 mL/min/kg, the bioavailability (in vivo [10]) was 100% and the half-life (in vivo [11]) was 3 h.

For `Cc1c([C@@H](O)CN2CCC3(CC2)CCN(c2ccc(C(C)(C)O)nc2)C3)ccc2c1COC2=O`, the IC50 [12] was 29000 nM and the IC50 ([13]; hek293) was “Not Active”.

With `Cc1c([C@@H](O)CN2CCC3(CC2)CCN(c2ccc(C#N)nc2)C3)ccc2c1COC2=O` the Ratio IC50 (Homo sapiens [14]) was 13 and the IC50 [12] was 1200 nM.

In the case of `Cc1c([C@@H](O)CN2CCC3(CC2)CCN(c2ccc(S(C)(=O)=O)nc2)C3)ccc2c1COC2=O`, the AUC/dose (Rattus norvegicus [1]) is reported as 0.7 µM·kg·h/mg, the Activity (Rattus norvegicus [4]) is reported as 0.1 mmHg and the concentration at 24 h [26] is reported as 21200 nM. It also gave an IC50 [5] of 50 nM, an IC50 [6] of 240 nM and a concentration at 4 h [27] of 26600 nM. For the same compound, the IC50 ([13]; read-out: IC50) was 226 nM, the Vd (in vivo [7]) was 2.8 L/kg and the concentration at 72 h [8] was 390 nM. It also gave a clearance (Rattus norvegicus [9]) of 23 mL/min/kg, a bioavailability (in vivo [10]) of 96% and a half-life (in vivo [11]) of 2 h.

Compound `Cc1c([C@@H](O)CN2CCC3(CC2)CC(=O)N(c2cnc(S(C)(=O)=O)cn2)C3)ccc2c1COC2=O` has an AUC/dose (Rattus norvegicus [1]) of 0.5 µM·kg·h/mg, an Activity (Rattus norvegicus [4]) of -16 mmHg and an IC50 [5] of 34 nM. For the same compound, the IC50 [6] was 60 nM, the Vd (in vivo [7]) was 3.8 L/kg and the concentration at 72 h [8] was 232 nM. The clearance (Rattus norvegicus [9]) was 30 mL/min/kg, the bioavailability (in vivo [10]) was 46% and the half-life (in vivo [11]) was 2.4 h.

For `Cc1c([C@@H](O)CN2CCC3(CC2)CC(=O)N(c2ccc(S(C)(=O)=O)cn2)C3)ccc2c1COC2=O`, the AUC/dose (Rattus norvegicus [1]) was 0.5 µM·kg·h/mg, the Ratio IC50 (Homo sapiens [14]) was 328 and the Ratio IC50 (Homo sapiens [17]) was 558. The Activity (Rattus norvegicus [4]) was -15.5 mmHg, the IC50 [12] was 17400 nM and the IC50 [5] was 43 nM. It also gave an IC50 [6] of 40 nM, a Vd (in vivo [7]) of 4.3 L/kg and a concentration at 72 h [8] of 220 nM. For the same compound, the clearance (Rattus norvegicus [9]) was 34 mL/min/kg, the bioavailability (in vivo [10]) was 48% and the IC50 [21] was 24000 nM. For the same compound, the half-life (in vivo [11]) was 2.1 h.

Work on `Cc1c([C@@H](O)CN2CCC3(CC2)CCN(c2ccc(C#N)cn2)CC3)ccc2c1COC2=O` yielded an IC50 ([13]; read-out: IC50) of 47 nM.

From ChEMBL document CHEMBL4002630, “The design and synthesis of novel spirocyclic heterocyclic sulfone ROMK inhibitors as diuretics” (Bioorg Med Chem Lett, 2017)
